ChEMBL document CHEMBL5528050, “Discovery of a Novel Series of Homo sapiens Caseinolytic Protease P Agonists for Colorectal Adenocarcinoma Treatment via ATF3-Dependent Integrated Stress Response” (J Med Chem, 2024)
pIC50: −log10 of the molar value. Active and inactive are the calls of the source. No cut-off for these calls is given here.

Columns and labels:
HCT-116 [1] = test: Induction of apoptosis in human HCT-116 cells assessed as apoptotic rate at low dose measured after 48 hrs by annexin V-FITC/7-AAD based flow cytometry analysis relative to control; assay type: functional
HCT-116 [2] = test: Induction of cell cycle arrest in human HCT-116 cells assessed as effect on number of cells at G1 phase at 0.5 to 2 uM measured after 48 hrs by PI staining based flow cytometry analysis; assay type: functional; conditions: dose 0.5-2 µM
[3] = Oral bioavailability in Sprague-Dawley rat at 10 mg/kg by LC-MS/MS analysis; assay type: ADME, organism-based; conditions: in vivo
HCT-116 [4] = test: Upregulation of ASNS expression in human HCT-116 cells measured after 48 hrs by Western blot analysis; assay type: functional, cell-based
HCT-116 [5] = test: Induction of apoptosis in human HCT-116 cells assessed as upregulation of bax expression at 0.5 to 2 uM measured after 48 hrs by Western blot analysis; assay type: functional, cell-based; conditions: dose 0.5-2 µM
HCT-116 [6] = test: Induction of apoptosis in human HCT-116 cells measured after 48 hrs by annexin V-FITC/7-AAD based flow cytometry analysis; assay type: functional, cell-based
HCT-116 [7] = test: Upregulation of ATF3 mRNA expression in human HCT-116 cells by RT-PCR analysis; assay type: functional, cell-based
HCT-116 [8] = test: Antitumor activity against human HCT-116 cells xenografted in BALB/c nude mouse model assessed as reduction in tumor volume at 5 mg/kg,iv and measured upto 21 days relative to control; assay type: functional; design: scale not given: the % may be the effect or the level left; conditions: time <= 21 day
Staphylococcus aureus [9] = test: Antibacterial activity against Staphylococcus aureus ATCC43300 assessed as reduction in bacterial growth; assay type: functional
HCT-116 [10] = test: Upregulation of CHAC1 expression in human HCT-116 cells measured after 48 hrs by Western blot analysis; assay type: functional, cell-based
HCT-116 [11] = test: Upregulation of DDIT3 mRNA expression in human HCT-116 cells by RT-PCR analysis; assay type: functional, cell-based
HCT-15 = test: cells; conditions: Homo sapiens, HCT-15, 72 h
Description: Antiproliferative activity against human HCT-15 cells assessed as inhibition of cell growth measured after 72 hrs by CCK-8 method

[12] = Half life in Sprague-Dawley rat at 10 mg/kg, iv by LC-MS/MS analysis; assay type: ADME, organism-based; conditions: in vivo
HCT-116 [13] = test: Antitumor activity against human HCT-116 cells xenografted in BALB/c nude mouse model assessed as reduction in tumor weight at middle dose administered as iv twice weekly and measured upto 21 days; assay type: functional; conditions: time <= 21 day
[14] = Antiproliferative activity against human L02 cells assessed as inhibition of cell growth measured after 72 hrs by CCK-8 method; assay type: toxicity, cell-based
[15] = Acute toxicity in BALB/c mouse assessed as reduction in body weight at low dose iv measured upto 21 days relative to control; assay type: organism-based; design: scale not given: the % may be the effect or the level left; conditions: in vivo, 504 h, time < 21 day
[16] = Acute toxicity in BALB/c mouse assessed as effect on spleen at 50 mg/kg, iv administered as single dose measured upto 14 days by H and E staining based analysis; assay type: organism-based; conditions: in vivo, 336 h, time < 14 day
[17] = Acute toxicity in BALB/c mouse assessed as effect on heart at 50 mg/kg, iv administered as single dose measured upto 14 days by H and E staining based analysis; assay type: organism-based; conditions: in vivo, 336 h, time < 14 day
[18] = Antiproliferative activity against HEK293 cells assessed as inhibition of cell growth measured after 72 hrs by CCK-8 method; assay type: toxicity, cell-based; conditions: human
HCT-116 [19] = test: cells; conditions: Homo sapiens, HCT-116, 72 h
Description: Antiproliferative activity against human HCT-116 cells assessed as inhibition of cell growth measured after 72 hrs by CCK-8 method

[20] = Antiproliferative activity against rat H9c2 cells assessed as inhibition of cell growth measured after 72 hrs by CCK-8 method; assay type: toxicity, cell-based
[21] = Acute toxicity in BALB/c mouse assessed as effect on liver at 50 mg/kg, iv administered as single dose measured upto 14 days by H and E staining based analysis; assay type: organism-based; conditions: in vivo, 336 h, time < 14 day
HCT-116 [22] = test: Induction of cell cycle arrest in human HCT-116 cells assessed as increase in number of cells at G2 phase at 0.5 uM measured after 48 hrs by PI staining based flow cytometry analysis; assay type: functional
HCT-116 [23] = test: Antiproliferative activity against human HCT-116 cells assessed reduction in clone formation measured after 48 hrs by crystal violet staining based analysis; assay type: functional, cell-based
HCT-116 [24] = test: Inhibition of mitochondrial function in human HCT-116 cells assessed as reduction in ATP production; assay type: functional, cell-based
HCT-116 [25] = test: Upregulation of GCLC expression in human HCT-116 cells measured after 48 hrs by Western blot analysis; assay type: functional, cell-based
Escherichia coli = test: Antibacterial activity against Escherichia coli ATCC25922 assessed as reduction in bacterial growth; assay type: functional
HCT-116 [26] = test: Effect on […] expression in ClpP knockdown human HCT-116 cells at 2 uM measured after 48 hrs by Western blot analysis; assay type: functional, cell-based
Cell membrane = test: Induction of mitochondrial membrane potential loss in human HCT-116 cells assessed as increase in green fluorescence at high dose measured after 48 hrs by JC-1 staining based microscopy analysis; assay type: cell membranes
HCT-116 [27] = test: Effect on DDIT4 expression in ClpP knockdown human HCT-116 cells at 2 uM measured after 48 hrs by Western blot analysis; assay type: functional, cell-based
[28] = Toxicity in BALB/c nude mouse assessed as effect on spleen at 1.25 to 5 mg/kg, iv administered twice weekly and measured after 21 days by H and E staining based analysis; assay type: organism-based; conditions: in vivo, 504 h, dose 1.25-5 mg/kg, time 21 day
HCT-116 [29] = test: Antitumor activity against human HCT-116 cells xenografted in BALB/c nude mouse model assessed as reduction in SDHB expression at upto 5 mg/kg, iv administered twice weekly by Western blot analysis; assay type: functional, organism-based
[30] = Toxicity in BALB/c nude mouse assessed as effect on liver at 1.25 to 5 mg/kg, iv administered twice weekly and measured after 21 days by H and E staining based analysis; assay type: organism-based; conditions: in vivo, 504 h, dose 1.25-5 mg/kg, time 21 day
HCT-116 [31] = test: Upregulation of ATF3 expression in human HCT-116 cells measured after 48 hrs by Western blot analysis; assay type: functional, cell-based
HCT-116 [32] = test: Antitumor activity against human HCT-116 cells xenografted in BALB/c nude mouse model assessed as increase in Bax expression at upto 5 mg/kg, iv administered twice weekly by Western blot analysis; assay type: functional, organism-based
Staphylococcus aureus [33] = test: Antibacterial activity against Staphylococcus aureus ATCC29213 assessed as reduction in bacterial growth; assay type: functional
[34] = AUC (0 to 12hrs) in Sprague-Dawley rat at 10 mg/kg, iv by LC-MS/MS analysis; assay type: ADME, organism-based; conditions: in vivo
HCT-116 [35] = test: Induction of apoptosis in human HCT-116 cells assessed as apoptotic rate at medium dose measured after 48 hrs by annexin V-FITC/7-AAD based flow cytometry analysis relative to control; assay type: functional
HCT-116 [36] = test: Antitumor activity against human HCT-116 cells xenografted in BALB/c nude mouse model assessed as reduction in tumor weight at high dose administered as iv twice weekly and measured upto 21 days; assay type: functional; conditions: time <= 21 day
[37] = Acute toxicity in BALB/c mouse assessed as effect on body weight at middle to high dose iv measured upto 21 days relative to control; assay type: organism-based; conditions: in vivo, 504 h, time < 21 day
[38] = Tmax in Sprague-Dawley rat at 10 mg/kg, po by LC-MS/MS analysis; assay type: ADME, organism-based; conditions: in vivo
[39] = Toxicity in BALB/c nude mouse assessed as effect on kidney at 1.25 to 5 mg/kg, iv administered twice weekly and measured after 21 days by H and E staining based analysis; assay type: organism-based; conditions: in vivo, 504 h, dose 1.25-5 mg/kg, time 21 day

Which results are given for `N#Cc1cccc(CN2CCC=C(C(=O)NCc3ccc(C(F)(F)F)cc3)C2)c1`?
Activity (HCT-116 [1]): 22%; Activity (HCT-116 [2]): inactive; bioavailability [3]: 54.2%; Activity (HCT-116 [4]): Active; Activity (HCT-116 [5]): Active; Activity (HCT-116 [6]): Dose-Dependent Effect; Activity (HCT-116 [7]): Active; Activity (HCT-116 [8]): 83.6%; MIC (Staphylococcus aureus [9]): > 128 mg/L; Activity (HCT-116 [10]): Active; Activity (HCT-116 [11]): Active; pIC50 (HCT-15): 5.46; half-life [12]: 4.8 h; Activity (HCT-116 [13]): 250 mg; IC50 at 72 h [14]: 64.1 µM; Activity [15]: 10%; Activity [16]: Non-Toxic; Activity [17]: Non-Toxic; IC50 at 72 h [18]: 78.1 µM; pIC50 (HCT-116 [19]): 6.00; IC50 at 72 h [20]: 60.6 µM; Activity [21]: Non-Toxic; Activity (HCT-116 [22]): 20%; Activity (HCT-116 [23]): Dose-Dependent Effect; inhibition (HCT-116 [24]): Active; Activity (HCT-116 [25]): Active; MIC (Escherichia coli): > 128 mg/L; Activity (HCT-116 [26]): inactive; Activity (Cell membrane): Active; Activity (HCT-116 [27]): inactive; Activity [28]: Non-Toxic; Activity (HCT-116 [29]): Active; Activity [30]: Non-Toxic; Activity (HCT-116 [31]): Active; Activity (HCT-116 [32]): Active; MIC (Staphylococcus aureus [33]): > 128 mg/L; AUC [34]: 1.4336 µg·h/mL; Activity (HCT-116 [35]): 46%; Activity (HCT-116 [36]): 300 mg; Activity [37]: Non-Toxic; Tmax [38]: 5.4 h; Activity [39]: Non-Toxic
